In PMC5419589 (Bioorganic & medicinal chemistry, 2016):

Tests used:
[1] = severe side effects of treatment; cited from earlier work
[2] = Mouse oral pharmacokinetics; type: in vivo; conditions: mice
[3] = tested on: T. brucei brucei (strain TREU667); experiment: Chronic; type: in vivo, mouse; conditions: for relapse with parasites in the blood / suppression of parasitemia during treatment phase: TREU667, 50 mg/kg twice a day oral day 21 to 34; for number of mice free of parasitemia/number of mice in the group: same dosing
[4] = Brain:plasma compound concentration measurements in mice; type: in vivo; conditions: following intraperitoneal injection in mice
[5] = tested on: T. brucei brucei strain BF427; experiment: T. brucei growth inhibition assay; type: cell-based, Trypanosoma brucei brucei; conditions: T. brucei EC50 assay

## Nc1nc(N)nc(Nc2ccc([As]3SCC(CO)S3)cc2)n1 (centres unmarked) [Melarsoprol]
[1]
  fatalities in patients: 3–10%

## CC(C)c1ccc(COc2ccc(N(CCN)C(=O)c3cccnc3C(F)(F)F)cc2)cc1.Cl [Compound 73]
[2]
  oral bioavailability (in words): orally bioavailable
[3]
  relapse with parasites in the blood: all mice relapsed
  suppression of parasitemia during treatment phase: complete suppression

## Cl.NCCN(C(=O)c1ccc(Cl)cc1Cl)c1ccc(F)cc1 [Compound 1]
[4]
  permeability into brain tissue (in words): excellent permeability into brain tissue

## Cl.NCCN(C(=O)c1ccc(F)cc1C(F)(F)F)c1ccc(OCc2ccc(Cl)cc2)cc1 [Compound 65, N-(2-Aminoethyl)-N-{4-[(4-chlorophenyl)methoxy]phenyl}-4-fluoro-2-(trifluoromethyl)benzamide hydrochloride]
[5]
  activity on T. brucei cells (in words): single digit nanomolar EC50 values
[3]
  relapse with parasites in the blood: all mice relapsed
  suppression of parasitemia during treatment phase: partial suppression
[3]; day 35 post-infection, day 1 post-treatment
  number of mice free of parasitemia/number of mice in the group: 4/4
[3]; day 36 post-infection, day 2 post-treatment
  number of mice free of parasitemia/number of mice in the group: 4/4
[3]; day 37 post-infection, day 3 post-treatment
  number of mice free of parasitemia/number of mice in the group: 2/4
[3]; day 38 post-infection, day 4 post-treatment
  number of mice free of parasitemia/number of mice in the group: 1/4
[3]; day 39 post-infection, day 5 post-treatment
  number of mice free of parasitemia/number of mice in the group: 1/4
[3]; day 40 post-infection, day 6 post-treatment
  number of mice free of parasitemia/number of mice in the group: 1/4
[3]; day 41–42 post-infection, day 7–8 post-treatment
  number of mice free of parasitemia/number of mice in the group: 1/4
[3]; day 43–45 post-infection, day 9–11 post-treatment
  number of mice free of parasitemia/number of mice in the group: 1/4
[3]; day 46–49 post-infection, day 12–15 post-treatment
  number of mice free of parasitemia/number of mice in the group: 0/4
